Several values for one entry are separate records, joined by “and”; a condition that tells them apart may be missing. Identical values can stand only once. Like-named read-outs stand apart in the source and are kept apart here.
Columns and labels:
[1] = Photostability test with additional light-shielding film LUMICOOL 1905 (Example 6); assay type: physicochemical; settings: for Molecular weight (×10^4), irradiation time 0 h / Molecular weight (×10^4), irradiation time 150 h / Molecular weight (×10^4), irradiation time 300 h / Percent Conjugation (%), irradiation time 0 h / Percent Conjugation (%), irradiation time 150 h / Percent Conjugation (%), irradiation time 300 h: vial wrapped with LUMICOOL 1905;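 on all read-outs here: molecular weight and drug conjugation percentage of the test conjugate, both determined by the method given for the first production procedure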
[2] = Photostability test in glass vials not shielded from light: gelation, molecular weight, percent conjugation of MTX (Example 4(2)); assay type: physicochemical
Procedure: Various photostabilizers (methyl p-hydroxybenzoate (methyl paraben), salicylic acid Na, thiosulfuric acid Na, thioglycolic acid Na, N-acetyltryptophan, and tryptophan) were each dissolved in a preparation buffer (0.9% NaCl containing 2 mM phosphate buffer, pH 7.4) to give a concentration of 1 or 10 mg/ml and thereafter filtered aseptically by passage through a 0.2-μm filter (Millex GV). A powder of the HA-MTX conjugate prepared in accordance with Production 1 was metered aseptically and dissolved in the filtered, photostabilizer-containing preparation buffer to give a concentration of 10 mg/mL; the thus prepared solutions were used as test samples. To prepare a control solution, the HA-MTX conjugate was dissolved in a photostabilizer-free preparation buffer at a concentration of 10 mg/mL.
The thus prepared solutions were put into glass vials not shielded from light and then irradiated with light.
The irradiation was so performed as to give an illuminance of 4000 Lux at 25° C. from a fluorescent lamp for use in a photostability test (TOSHIBA FL20S•D-EDL-D65) by means of a photostability tester (ETAC LABONIC LA110). After the lapse of specified periods (0 h, 25 h, 50 h, 100 h, 150 h, and 300 h) of irradiation, samples were taken and not only checked for gelation but also measured for the molecular weight of the HA-MTX conjugate and the percent conjugation of MTX (in the HA-MTX conjugate).
To evaluate the degree of gelation, the surface of each sample solution was pierced with a spatula and visually checked for the formation of an interface as the result of gelation. […] The apparatus used in gel filtration chromatography was equipped with OHpackSB-806HQ (Shodex) as a column, RI-71 (Shodex) as an […], and 875-UV (JASCO, detection wavelength: 304 nm) as a UV detector and analysis was conducted under the following conditions. Eluent: 50 mM sodium phosphate aqueous solution (pH 6.0); elution rate: 0.6 mL/min; column temperature: 40° C. By the above-described gel filtration chromatography, the elution times of the conjugate of interest were determined and the molecular weight of the same conjugate was determined from the relationship between the elution times and molecular weights of standard substances. As the standard substances, hyaluronic acid samples were prepared in varying molecular weights and their accurate values were calculated by the limiting viscosity method before it was used.

[3] = additive 1 mg/ml, 4000 Lux, 25° C., not shielded from light
[4] = additive 10 mg/ml, 4000 Lux, 25° C., not shielded from light

SMILES	Molecular weight (×10^4), irradiation time 0 h ([1]; additive 1 mg/mL)	Molecular weight (×10^4), irradiation time 150 h ([1]; additive 1 mg/mL)	Molecular weight (×10^4), irradiation time 300 h ([1]; additive 1 mg/mL)	Percent Conjugation (%), irradiation time 0 h ([1]; additive 1 mg/mL) [%]	Percent Conjugation (%), irradiation time 150 h ([1]; additive 1 mg/mL) [%]	Percent Conjugation (%), irradiation time 300 h ([1]; additive 1 mg/mL) [%]	Molecular weight (×10^4), irradiation time 0 h ([1]; additive 10 mg/mL)	Molecular weight (×10^4), irradiation time 150 h ([1]; additive 10 mg/mL)	Molecular weight (×10^4), irradiation time 300 h ([1]; additive 10 mg/mL)	Percent Conjugation (%), irradiation time 0 h ([1]; additive 10 mg/mL) [%]	Percent Conjugation (%), irradiation time 150 h ([1]; additive 10 mg/mL) [%]	Percent Conjugation (%), irradiation time 300 h ([1]; additive 10 mg/mL) [%]	Molecular weight (×10^4), irradiation time 0 h [2, 3]	Molecular weight (×10^4), irradiation time 25 h [2, 3]	Molecular weight (×10^4), irradiation time 50 h [2, 3]	Molecular weight (×10^4), irradiation time 100 h [2, 3]	Molecular weight (×10^4), irradiation time 150 h [2, 3]	Molecular weight (×10^4), irradiation time 300 h [2, 3]	Percent Conjugation (%) of MTX, irradiation time 0 h [2, 3] [%]	Percent Conjugation (%) of MTX, irradiation time 25 h [2, 3] [%]	other results
N[C@@H](Cc1c[nH]c2ccccc12)C(=O)O [Tryptophan, tryptophan]	188 ×10^4	176 ×10^4	153 ×10^4	2.2	2.2	2.2	181 ×10^4	177 ×10^4	156 ×10^4	2.2	2.2	2.2	188 ×10^4	171 ×10^4	138 ×10^4	112 ×10^4	83 ×10^4	45 ×10^4	2.2	2.2	suppressing drops in the molecular weight and percent conjugation ([2]; added at 1 mg/mL, not shielded from light): could suppress drops in the molecular weight and percent conjugation for irradiation periods that did not exceed about 100 hours; Percent Conjugation (%) of MTX, irradiation time 50 h [2, 3]: 2.2%; Percent Conjugation (%) of MTX, irradiation time 100 h [2, 3]: 2.2%; Percent Conjugation (%) of MTX, irradiation time 150 h [2, 3]: 2.1%; Percent Conjugation (%) of MTX, irradiation time 300 h [2, 3]: 2.2%; Molecular weight (×10^4), irradiation time 0 h [2, 4]: 181 ×10^4; Molecular weight (×10^4), irradiation time 25 h [2, 4]: 175 ×10^4; Molecular weight (×10^4), irradiation time 50 h [2, 4]: 164 ×10^4; Molecular weight (×10^4), irradiation time 100 h [2, 4]: 118 ×10^4; Molecular weight (×10^4), irradiation time 150 h [2, 4]: 110 ×10^4; Molecular weight (×10^4), irradiation time 300 h [2, 4]: 70 ×10^4; Percent Conjugation (%) of MTX, irradiation time 0 h [2, 4]: 2.2%; Percent Conjugation (%) of MTX, irradiation time 25 h [2, 4]: 2.3%; Percent Conjugation (%) of MTX, irradiation time 50 h [2, 4]: 2.2%; Percent Conjugation (%) of MTX, irradiation time 100 h [2, 4]: 2.2%; Percent Conjugation (%) of MTX, irradiation time 150 h [2, 4]: 2.2%; Percent Conjugation (%) of MTX, irradiation time 300 h [2, 4]: 2.2%
O=C([O-])CS.[Na+] [Na thioglycolate, sodium thioglycolate]	163 ×10^4	123 ×10^4	44 ×10^4	2.1	2.2	2.2	181 ×10^4	170 ×10^4	157 ×10^4	2.1	2.1	2.2	163 ×10^4	136 ×10^4	97 ×10^4	8 ×10^4	5 ×10^4	2 ×10^4	2.1	2.2	suppressing drops in the molecular weight and percent conjugation ([2]; added at 10 mg/ml, not shielded from light): considerably effective in suppressing drops in the molecular weight and percent conjugation even when the time of irradiation exceeded 100 hours; Percent Conjugation (%) of MTX, irradiation time 50 h [2, 3]: 2.2%; Percent Conjugation (%) of MTX, irradiation time 100 h [2, 3]: 1.4%; Percent Conjugation (%) of MTX, irradiation time 150 h [2, 3]: 1.0%; Percent Conjugation (%) of MTX, irradiation time 300 h [2, 3]: 0.4%; Molecular weight (×10^4), irradiation time 0 h [2, 4]: 181 ×10^4; Molecular weight (×10^4), irradiation time 25 h [2, 4]: 166 ×10^4; Molecular weight (×10^4), irradiation time 50 h [2, 4]: 169 ×10^4; Molecular weight (×10^4), irradiation time 100 h [2, 4]: 163 ×10^4; Molecular weight (×10^4), irradiation time 150 h [2, 4]: 154 ×10^4; Molecular weight (×10^4), irradiation time 300 h [2, 4]: 5 ×10^4; Percent Conjugation (%) of MTX, irradiation time 0 h [2, 4]: 2.1%; Percent Conjugation (%) of MTX, irradiation time 25 h [2, 4]: 2.2%; Percent Conjugation (%) of MTX, irradiation time 50 h [2, 4]: 2.3%; Percent Conjugation (%) of MTX, irradiation time 100 h [2, 4]: 2.0%; Percent Conjugation (%) of MTX, irradiation time 150 h [2, 4]: 2.2%; Percent Conjugation (%) of MTX, irradiation time 300 h [2, 4]: 1.4%
O=S([O-])([O-])=S.[Na+].[Na+] [Na thiosulfate, sodium thiosulfate]	181 ×10^4	186 ×10^4	180 ×10^4	2.3	2.2	2.2	190 ×10^4	188 ×10^4	186 ×10^4	2.1	2.2	2.1									stabilizing effects (suppressing effects on the drop in molecular weight and the drop in percent conjugation of MTX) ([1]; with light-shielding film LUMICOOL 1905): comparable to those obtained in the case where complete shielding of light was ensured by aluminum foil; Molecular weight (×10^4), irradiation time 0 h [2]: 190 ×10^4 and 181 ×10^4; Molecular weight (×10^4), irradiation time 25 h [2]: 190 ×10^4 and 145 ×10^4; Percent Conjugation (%) of MTX, irradiation time 0 h [2]: 2.1% and 2.3%; Percent Conjugation (%) of MTX, irradiation time 25 h [2]: 2.2% and 2.1%; Percent Conjugation (%) of MTX, irradiation time 50 h [2]: 2.3% and 1.5%; Percent Conjugation (%) of MTX, irradiation time 100 h [2]: 2.1% and 0.8%; Percent Conjugation (%) of MTX, irradiation time 150 h [2]: 2.2% and 0.6%; Percent Conjugation (%) of MTX, irradiation time 300 h [2]: 2.1% and 0.4%; suppressing drops in the molecular weight and percent conjugation [2]: considerably effective in suppressing drops in the molecular weight and percent conjugation even when the time of irradiation exceeded 100 hours

— patent US9072791B2, “Photostabilized pharmaceutical compositions” (DENKI KAGAKU KOGYO KABUSHIKI KAISHA, priority 2008, dated 2015)
